Test results: the CheMixHub viscosity set
Where “and” joins values, the source holds several entries; their conditions need not be identical. Equal values may be shown once. ± gives the uncertainty stated by the source.

Assay: xn = mol fraction of the nth substance listed

C[N+](C)(C)CCO.[Cl-] + OCC(O)CO
Conditions | viscosity
308.15 K, 101.3 kPa, x2 = 0.7 | 194.5 ± 12 mPa·s
308.15 K, 101.33 kPa, x2 = 0.7 | 96.86 ± 22 mPa·s
308.34 K, 101.33 kPa, x2 = 0.8 | 61.7 ± 16 mPa·s
309.15 K, 101.33 kPa, x2 = 0.8 | 58.96 ± 16 mPa·s
309.17 K, 101.33 kPa, x2 = 0.7 | 92 ± 20 mPa·s
309.94 K, 101.33 kPa, x2 = 0.7 | 88.35 ± 20 mPa·s
310 K, 101.33 kPa, x2 = 0.8 | 56.2 ± 15 mPa·s
310.82 K, 101.33 kPa, x2 = 0.8 | 53.22 ± 14 mPa·s
310.85 K, 101.33 kPa, x2 = 0.7 | 82.38 ± 18 mPa·s
311.67 K, 101.33 kPa, x2 = 0.8 | 50.6 ± 13 mPa·s
311.74 K, 101.33 kPa, x2 = 0.7 | 79.15 ± 17 mPa·s
312.13 K, 101 kPa, x1 = 0.333 | 144.5 ± 3.1 mPa·s
312.62 K, 101.33 kPa, x2 = 0.7 | 74.77 ± 16 mPa·s
312.66 K, 101.33 kPa, x2 = 0.8 | 47.68 ± 13 mPa·s
313 K, 101 kPa, x1 = 0.3333 | 222.4 ± 8.5 mPa·s
313.15 K, 100 kPa, x1 = 0.3 | 148 ± 6 mPa·s
313.15 K, 100 kPa, x1 = 0.33 | 145.1 ± 5.3 mPa·s
313.15 K, 100 kPa, x1 = 0.333 | 165.7 ± 13 mPa·s and 161.3 ± 7 mPa·s
313.15 K, 101 kPa, x1 = 0.167 | 119 ± 12 mPa·s
313.15 K, 101 kPa, x1 = 0.2 | 144.2 ± 6.9 mPa·s and 90 ± 9 mPa·s
313.15 K, 101 kPa, x1 = 0.25 | 140.9 ± 6.6 mPa·s and 93 ± 9 mPa·s
313.15 K, 101 kPa, x1 = 0.33 | 138.6 ± 6.5 mPa·s
313.15 K, 101 kPa, x1 = 0.333 | 85 ± 9 mPa·s
313.4 K, 101.33 kPa, x2 = 0.7 | 70.27 ± 14 mPa·s
313.68 K, 101.33 kPa, x2 = 0.8 | 45.67 ± 9.3 mPa·s
314.3 K, 101.33 kPa, x2 = 0.7 | 67.45 ± 15 mPa·s
314.49 K, 101.33 kPa, x2 = 0.8 | 43.42 ± 11 mPa·s
315.23 K, 101.33 kPa, x2 = 0.8 | 41.47 ± 11 mPa·s
315.26 K, 101.33 kPa, x2 = 0.7 | 64.39 ± 14 mPa·s
315.79 K, 101.33 kPa, x2 = 0.8 | 40.01 ± 8.1 mPa·s
316.19 K, 101.33 kPa, x2 = 0.7 | 60.28 ± 12 mPa·s
316.96 K, 101.33 kPa, x2 = 0.8 | 38.19 ± 7.8 mPa·s
317.25 K, 101.33 kPa, x2 = 0.7 | 57.92 ± 12 mPa·s
317.43 K, 101 kPa, x1 = 0.333 | 110.5 ± 1.9 mPa·s
317.78 K, 101.33 kPa, x2 = 0.8 | 35.41 ± 9.3 mPa·s
317.92 K, 101.33 kPa, x2 = 0.7 | 55.4 ± 12 mPa·s
318 K, 101 kPa, x1 = 0.3333 | 159.6 ± 5.3 mPa·s
318.15 K, 100 kPa, x1 = 0.3 | 116 ± 4 mPa·s
318.15 K, 100 kPa, x1 = 0.333 | 125.2 ± 5.3 mPa·s
318.15 K, 101 kPa, x1 = 0.2 | 109 ± 4 mPa·s
318.15 K, 101 kPa, x1 = 0.25 | 107.2 ± 3.8 mPa·s
318.15 K, 101 kPa, x1 = 0.33 | 106.9 ± 3.8 mPa·s
318.15 K, 101 kPa, x1 = 0.333 | 91 ± 3.9 mPa·s
318.15 K, 101.3 kPa, x2 = 0.7 | 114.4 ± 4.2 mPa·s
318.42 K, 101.33 kPa, x2 = 0.8 | 35.11 ± 9.2 mPa·s
318.59 K, 101.33 kPa, x2 = 0.7 | 53.65 ± 12 mPa·s
319.37 K, 101.33 kPa, x2 = 0.8 | 33.09 ± 8.8 mPa·s
319.53 K, 101.33 kPa, x2 = 0.7 | 51.45 ± 11 mPa·s
320.2 K, 101.33 kPa, x2 = 0.8 | 31.05 ± 6.3 mPa·s
320.45 K, 101.33 kPa, x2 = 0.7 | 48.65 ± 9.9 mPa·s
321.14 K, 101.33 kPa, x2 = 0.8 | 29.69 ± 6 mPa·s
321.38 K, 101.33 kPa, x2 = 0.7 | 46.23 ± 9.4 mPa·s
322.2 K, 101.33 kPa, x2 = 0.7 | 44.48 ± 9 mPa·s
322.23 K, 101 kPa, x1 = 0.333 | 93.48 ± 1.4 mPa·s
323 K, 101 kPa, x1 = 0.3333 | 123.5 ± 3.7 mPa·s
323.02 K, 101.33 kPa, x2 = 0.7 | 42.72 ± 8.7 mPa·s
323.15 K, 100 kPa, x1 = 0.3 | 89.7 ± 2.5 mPa·s
323.15 K, 100 kPa, x1 = 0.33 | 88.7 ± 1.8 mPa·s
323.15 K, 100 kPa, x1 = 0.333 | 98.89 ± 4.1 mPa·s
323.15 K, 101 kPa, x1 = 0.2 | 83.04 ± 2.1 mPa·s
323.15 K, 101 kPa, x1 = 0.25 | 82.18 ± 2.1 mPa·s
323.15 K, 101 kPa, x1 = 0.33 | 83.12 ± 2.1 mPa·s
323.15 K, 101.3 kPa, x2 = 0.7 | 88.65 ± 2.3 mPa·s
